Data taken from ChEMBL document CHEMBL6182942, “Discovery of a Selective, Novel TGF-βR1 Inhibitor GFH018 for the Treatment of Solid Tumors” (J Med Chem, 2025).
The source made the active and inactive calls. The calls are words filed in the database; no cut-off is given here.

Experiments:
[1] = Half life in CD-1 mouse at 1 mg/kg, iv by LC-MS/MS analysis; assay type: ADME, organism-based; details: in vivo
[2] = Oral bioavailability in Beagle dog at 5 mg/kg via gavage by LC-MS/MS analysis; assay type: ADME, organism-based, Canis lupus familiaris; details: in vivo
[3] = Protein binding in Beagle dog plasma at 0.2 to 10 uM measured after 4 hrs by equilibrium dialysis based LC-MS/MS analysis; assay type: ADME, cell-free, Canis lupus familiaris; details: dose 0.2-10 µM, read-out: PPB (converted)
[4] = Mutagenicity in Salmonella typhimurium TA98 by Ames test; assay type: toxicity; details: salmonella enterica subsp. enterica serovar typhimurium
[5] = Oral bioavailability in Sprague-Dawley rat at 30 mg/kg administered via gavage by LC-MS/MS analysis; assay type: ADME, organism-based; details: in vivo
[6] = Half life in Beagle dog at 5 mg/kg, po by LC-MS/MS analysis; assay type: ADME, organism-based, Canis lupus familiaris; details: in vivo
[7] = Half life in CD-1 mouse at 75 mg/kg, po via gavage by LC-MS/MS analysis; assay type: ADME, organism-based; details: in vivo
[8] = Drug metabolism in human hepatocytes; assay type: ADME, cell-based, Hepatocyte
[9] = Mutagenicity in Salmonella typhimurium TA100 in presence of liver S9 fraction by Ames test; assay type: toxicity, subcellular; details: salmonella enterica subsp. enterica serovar typhimurium
[10] = test system: CT26; assay: Synergistic antitumor activity against mouse CT26 cells implanted in BALB/c mouse assessed as tumor growth inhibition at 50 mg/kg, po administered twice daily in presence of antimouse-PD-L1 antibody; assay type: functional; details: read-out: TGI
[11] = Protein binding in human plasma at 0.2 to 10 uM measured after 4 hrs by equilibrium dialysis based LC-MS/MS analysis; assay type: ADME, cell-free; details: dose 0.2-10 µM, read-out: PPB (converted)
[12] = Half life in CD-1 mouse at 5 mg/kg, po via gavage by LC-MS/MS analysis; assay type: ADME, organism-based; details: in vivo
[13] = Drug metabolism in rat hepatocytes; assay type: ADME, cell-based, Hepatocyte
[14] = Drug metabolism in mouse liver microsomes; assay type: ADME, Microsome
[15] = AUC (0 to last) in CD-1 mouse at 75 mg/kg, po via gavage by LC-MS/MS analysis; assay type: ADME, organism-based; details: in vivo
[16] = Drug metabolism in monkey hepatocytes; assay type: ADME, cell-based, Macaca mulatta, Hepatocyte; details: rhesus monkey
[17] = Intrinsic clearance in mouse hepatocytes at 1 uM measured after 90 mins by LC-MS/MS analysis; assay type: ADME, cell-based, Hepatocyte; details: read-out: CLH
[18] = AUC (0 to last) in Beagle dog at 5 mg/kg, po by LC-MS/MS analysis; assay type: ADME, organism-based, Canis lupus familiaris; details: in vivo
[19] = Lipophilicity, log D of the compound; assay type: physicochemical; details: octanol/water
[20] = Drug metabolism in mouse hepatocytes; assay type: ADME, cell-based, Hepatocyte
[21] = test system: Mus musculus; assay: In vivo inhibition of TGFbetaR1 in mouse H22 cell implanted BALB/c mouse assessed as reduction in Smad phosphorylation at 15 to 50 mg/kg, po administered twice daily for 11 days measured 1 to 12 hrs post-last dose by immunoblotting analysis; assay type: functional, organism-based; details: dose lower […], dose upper 50.0 mg/kg, time 11.0 day
[22] = Volume of distribution at steady state in Sprague-Dawley rat at 1 mg/kg, iv by LC-MS/MS analysis; assay type: ADME, organism-based; details: in vivo, read-out: Vdss
[23] = Half life in Beagle dog at 1 mg/kg, iv by LC-MS/MS analysis; assay type: ADME, organism-based, Canis lupus familiaris; details: in vivo
[24] = Intrinsic clearance in human hepatocytes at 1 uM measured after 90 mins by LC-MS/MS analysis; assay type: ADME, cell-based, Hepatocyte; details: read-out: CLH
[25] = Time at which unbound plasma concentration required to show cellular IC50 for inhibition of smad phosphorylation in mouse H22 cell implanted BALB/c mouse at 50 mg/kg, po administered twice daily for 11 days; assay type: functional; details: time 11 day
[26] = test system: 4T1-Luc; assay: Antimetastatic activity against mouse 4T1-Luc cells implanted in BALB/c mouse assessed as reduction in metastatic rate in liver at 100 mg/kg, po administered daily for 32 days and measured on day 30 to 35 by IVIS fluorescence analysis; assay type: functional, organism-based; details: time 35.0 day
[27] = Clearance in Sprague-Dawley rat at 1 mg/kg, iv by LC-MS/MS analysis; assay type: ADME, organism-based; details: in vivo
[28] = test system: H22; assay: Antitumor activity against mouse H22 cells implanted in po dosed BALB/c mouse assessed as tumor growth inhibition administered twice daily for 11 days and measured 3 times per week during compound dosing; assay type: functional, organism-based; details: dose lower […], dose upper 50.0 mg/kg, time 11.0 day

Question: With `Cc1cccc(-c2nn3c(c2-c2ccc4ncnn4c2/C=C/C(N)=O)CCC3)n1` as the compound, how does the half-life [1] read?
Answer: 29 min

Question: What about the bioavailability [2] of the same compound?
Answer: 65.5%

Question: And the fraction unbound at 4 h, up to 10 µM [3]?
Answer: 0.476

Question: And the Activity [4]?
Answer: Non-toxic

Question: What about the bioavailability [5] of the same compound?
Answer: 29.9%

Question: What about the half-life [6] of the same compound?
Answer: 170 min

Question: And the half-life [7]?
Answer: 51.4 min

Question: What about the Drug metabolism [8] of the same compound?
Answer: metabolite_detected

Question: What about the Activity [9] of the same compound?
Answer: Non-toxic

Question: What about the inhibition in vivo at 50 mg/kg [10] of the same compound?
Answer: 79.4%

Question: What about the fraction unbound at 4 h, up to 10 µM [11] of the same compound?
Answer: 0.556

Question: What about the half-life [12] of the same compound?
Answer: 55 min

Question: What about the Drug metabolism [13] of the same compound?
Answer: metabolite_detected

Question: And the Drug metabolism [14]?
Answer: metabolite_detected

Question: And the AUClast [15]?
Answer: 18137 nM.hr/ml

Question: What about the Drug metabolism [16] of the same compound?
Answer: metabolite_detected

Question: What about the CLint scaled at […], 1 µM [17] of the same compound?
Answer: 298 mL/min/kg

Question: What about the AUClast [18] of the same compound?
Answer: 18284 nM.hr/ml

Question: And the logD [19]?
Answer: 1.36

Question: What about the Drug metabolism [20] of the same compound?
Answer: metabolite_detected

Question: What about the inhibition [21] of the same compound?
Answer: Active; Observed A Significant Decline In Phosphorylated Smad3 Protein At 1 H But Nearly Absent At […] Hrs

Question: What about the Vd [22] of the same compound?
Answer: 1.44 L/kg

Question: What about the half-life [23] of the same compound?
Answer: 190 min

Question: And the CLint scaled at […], 1 µM [24]?
Answer: < 6.9 mL/min/kg

Question: And the “T>IC50” value [25]?
Answer: ~5.5 h

Question: What about the Activity [26] of the same compound?
Answer: Active

Question: And the clearance [27]?
Answer: 33.3 mL/min/kg

Question: And the TGI [28]?
Answer: Dose-dependent-effect
